Measurements from patent US9422293B2 (priority 2006, dated 2016).
Counter-ions that a name gives are not always drawn.

Molecular target: rat TRPV1 (Rattus norvegicus (Rat), UniProt O35433)
Details: read-out: Rat IC50
Method: Biological Testing: Functional Assay: Block of Capsaicin-Induced Ca^2+ Influx A. Human Assay
Cells were passaged frequently, every 3-5 days, to avoid overgrowth, depletion of essential medium components, or acidic medium exposure. Cells were passaged using a brief wash in 0.05% trypsin with 1 mM EDTA, followed by dissociation in divalent-free phosphate-buffered saline (Hyclone #SH30028.02). […] The assay buffer was composed of 130 mM NaCl, 2 mM KCl, 2 mM MgCl2, 10 mM HEPES, 5 mM glucose, and either 2 mM or 20 μM CaCl2. On the day of the experiment, the culture medium was replaced with 2 mM calcium assay buffer using an automated plate washer (ELx405; Biotek, VT). […] After loading the cells, the dye solution was replaced with 50 μL/well of 20 μM calcium assay buffer using the ELx405 plate washer. Test compounds (50 μL/well) were added to the plate and incubated for 30 min. […] The IC50 values were determined. […] The contents of the wells were mixed 3 times (40 μL mix volume) immediately after the additions were made. Concentration dependence of block was determined by exposing each well of cells in duplicate rows of a 96 well plate to a serial dilution of test compound. The concentration series usually started at 10 μM with a three-fold serial decrement in concentration. The magnitude of the capsaicin response was determined by measuring the change in fluo3 fluorescence before and 100 seconds after the addition of the agonist. Data were analyzed using a non-linear regression program (Origin; OriginLab, MA). IC50 values shown are the average (mean) of the results obtained.
The assay was performed as described above, using HEK293 cells transfected with rat TRPV1 (rTRPV1/HEK293). […] IC50 values shown are the average (mean) of the results obtained.

Chain of rat TRPV1 (O35433 whole entry): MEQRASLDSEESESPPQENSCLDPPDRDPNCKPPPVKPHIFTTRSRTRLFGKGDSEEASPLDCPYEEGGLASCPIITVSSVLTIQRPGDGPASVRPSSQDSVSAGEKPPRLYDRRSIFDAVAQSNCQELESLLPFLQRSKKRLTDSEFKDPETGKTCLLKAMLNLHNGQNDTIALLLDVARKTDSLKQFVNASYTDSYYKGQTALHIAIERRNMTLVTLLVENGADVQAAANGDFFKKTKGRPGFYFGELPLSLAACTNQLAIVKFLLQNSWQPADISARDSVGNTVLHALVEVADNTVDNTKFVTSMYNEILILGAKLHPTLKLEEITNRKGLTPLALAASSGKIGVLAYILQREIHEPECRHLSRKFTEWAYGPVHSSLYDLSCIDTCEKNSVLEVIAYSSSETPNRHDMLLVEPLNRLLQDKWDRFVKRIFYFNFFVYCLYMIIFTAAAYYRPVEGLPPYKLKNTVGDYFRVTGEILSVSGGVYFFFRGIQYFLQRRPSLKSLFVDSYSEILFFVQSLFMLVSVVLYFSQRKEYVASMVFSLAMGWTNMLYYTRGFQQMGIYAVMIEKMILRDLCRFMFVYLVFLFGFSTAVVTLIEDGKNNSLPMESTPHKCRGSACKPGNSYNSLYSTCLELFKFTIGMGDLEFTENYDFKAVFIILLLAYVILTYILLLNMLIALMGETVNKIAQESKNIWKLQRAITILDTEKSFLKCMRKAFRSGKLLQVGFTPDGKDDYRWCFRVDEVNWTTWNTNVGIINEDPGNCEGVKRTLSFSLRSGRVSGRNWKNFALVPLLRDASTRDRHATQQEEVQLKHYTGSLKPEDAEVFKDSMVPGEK

Which IC50 does the source give for `FC(F)(F)c1ccc(Nc2nc(-c3ccco3)nc3c2CCN(c2ncccc2C(F)(F)F)CC3)cc1` [Example 144, 2-Furan-2-yl-N-[4-(trifluoromethyl)phenyl]-7-[3-(trifluoromethyl)pyridin-2-yl]-6,7,8,9-tetrahydro-5H-pyrimido[4,5-d]azepin-4-amine] here?
Its IC50 is 240 nM.

How did the IC50 turn out when `CC(Oc1nc2c(c(Nc3ccc4c(c3)N(C)CCC4)n1)CCN(c1ncccc1C(F)(F)F)CC2)C1CCCCC1` (stereo not drawn) [Example 316, 2-[(1-Cyclohexylethyl)oxy]-N-(1-methyl-1,2,3,4-tetrahydroquinolin-7-yl)-7-[3-(trifluoromethyl)pyridin-2-yl]-6,7,8,9-tetrahydro-5H-pyrimido[4,5-d]azepin-4-amine] was run?
Its IC50 is 1180 nM.

Which IC50 does the source give for `Cc1cc(C(F)(F)F)ccc1Nc1nc(OC2CCOCC2)nc2c1CCN(c1ncccc1C(F)(F)F)CC2` [Example 312, N-[2-Methyl-4-(trifluoromethyl)phenyl]-2-(tetrahydro-2H-pyran-4-yloxy)-7-[3-(trifluoromethyl)pyridin-2-yl]-6,7,8,9-tetrahydro-5H-pyrimido[4,5-d]azepin-4-amine] here?
Its IC50 is 450 nM.

Which IC50 does the source give for `FC1(F)CCCN(c2nc3c(c(Nc4ccc(C(F)(F)F)cc4)n2)CCN(c2ncccc2C(F)(F)F)CC3)C1` [Example 238, 2-(3,3-Difluoropiperidin-1-yl)-N-[4-(trifluoromethyl)phenyl]-7-[3-(trifluoromethyl)pyridin-2-yl]-6,7,8,9-tetrahydro-5H-pyrimido[4,5-d]azepin-4-amine trifluoroacetic acid salt] here?
The IC50 was 40 nM.

How did the IC50 turn out when `CC1CCCN(c2nc3c(c(Nc4ccc(C(F)(F)F)cc4)n2)CCN(c2ncccc2C(F)(F)F)CC3)C1` (stereo not drawn) [Example 240, 2-(3-Methylpiperidin-1-yl)-N-[4-(trifluoromethyl)phenyl]-7-[3-(trifluoromethyl)pyridin-2-yl]-6,7,8,9-tetrahydro-5H-pyrimido[4,5-d]azepin-4-amine trifluoroacetic acid salt] was run?
Its IC50 is 20 nM.

With `FC(F)(F)c1cccnc1N1CCc2nc(N3CCCCCC3)nc(NCc3ccc(Cl)c(Cl)c3)c2CC1` [Example 255, 2-Azepan-1-yl-N-[(3,4-dichlorophenyl)methyl]-7-[3-(trifluoromethyl)pyridin-2-yl]-6,7,8,9-tetrahydro-5H-pyrimido[4,5-d]azepin-4-amine] as the compound, how does the IC50 read?
Its IC50 is 700 nM.

With `CC(C)c1nc2c(c(NCc3c(Cl)cccc3Cl)n1)CCN(c1ncccc1C(F)(F)F)CC2` [Example 120, N-[(2,6-Dichlorophenyl)methyl]-2-(1-methylethyl)-7-[3-(trifluoromethyl)pyridin-2-yl]-6,7,8,9-tetrahydro-5H-pyrimido[4,5-d]azepin-4-amine] as the compound, how does the IC50 read?
Its IC50 is 12000 nM.

With `CN1CCCc2ccc(Nc3nc(OC4CCOC4)nc4c3CCN(c3ncccc3C(F)(F)F)CC4)cc21` (stereo not drawn) [Example 323, N-(1-Methyl-1,2,3,4-tetrahydroquinolin-7-yl)-2-(tetrahydrofuran-3-yloxy)-7-[3-(trifluoromethyl)pyridin-2-yl]-6,7,8,9-tetrahydro-5H-pyrimido[4,5-d]azepin-4-amine] as the compound, how does the IC50 read?
The IC50 was 670 nM.

With `FC(F)(F)c1ccc(Nc2nc(N3CCC3)nc3c2CCN(c2ncccc2C(F)(F)F)CC3)nc1` [Example 197, 2-Azetidin-1-yl-7-[3-(trifluoromethyl)pyridin-2-yl]-N-[5-(trifluoromethyl)pyridin-2-yl]-6,7,8,9-tetrahydro-5H-pyrimido[4,5-d]azepin-4-amine trifluoroacetic acid salt] as the compound, how does the IC50 read?
Its IC50 is 150 nM.

For `CN(C)c1nc2c(c(Nc3ccc(C(F)(F)F)cn3)n1)CCN(c1ncccc1C(F)(F)F)CC2` [Example 44, N^2,N^2-Dimethyl-N^4-(5-trifluoromethyl-pyridin-2-yl)-7-(3-trifluoro-methyl-pyridin-2-yl)-6,7,8,9-tetrahydro-5H-pyrimido[4,5-d]azepine-2,4-diamine], which IC50 is on record?
Its IC50 is 250 nM.

`CC(C)c1nc2c(c(Nc3ccc(C(F)(F)F)cc3)n1)CCN(c1ncccc1N)CC2` [Example 86, [7-(3-Amino-pyridin-2-yl)-2-isopropyl-6,7,8,9-tetrahydro-5H-pyrimido[4,5-d]azepin-4-yl]-(4-trifluoromethyl-phenyl)-amine] was tested. Which IC50 did it give?
The IC50 was 850 nM.

With `Cc1cccc(Nc2nc3c(c(Nc4ccc(C(F)(F)F)cc4)n2)CCN(c2ncccc2C(F)(F)F)CC3)c1` [Example 279, N^2-(3-Methylphenyl)-N^4-[4-(trifluoromethyl)phenyl]-7-[3-(trifluoromethyl)pyridin-2-yl]-6,7,8,9-tetrahydro-5H-pyrimido[4,5-d]azepine-2,4-diamine trifluoroacetic acid salt] as the compound, how does the IC50 read?
Its IC50 is over 6670 nM.

How did the IC50 turn out when `CSc1nc2c(c(Nc3ccc(C(F)(F)F)cc3Cl)n1)CCN(c1ncccc1C(F)(F)F)CC2` [Example 203, N-[2-Chloro-4-(trifluoromethyl)phenyl]-2-(methylsulfanyl)-7-[3-(trifluoromethyl)pyridin-2-yl]-6,7,8,9-tetrahydro-5H-pyrimido[4,5-d]azepin-4-amine] was run?
Its IC50 is over 6670 nM.

For `COCCNc1nc2c(c(Nc3ccc(C(F)(F)F)cc3)n1)CCN(c1ncccc1C(F)(F)F)CC2` [Example 213, N^2-[2-(Methyloxy)ethyl]-N^4-[4-(trifluoromethyl)phenyl]-7-[3-(trifluoromethyl)pyridin-2-yl]-6,7,8,9-tetrahydro-5H-pyrimido[4,5-d]azepine-2,4-diamine trifluoroacetic acid salt], which IC50 is on record?
The IC50 was 110 nM.

For `CC(C)c1nc2c(c(Nc3ccc(C(C)O)cc3)n1)CCN(c1ncccc1C(F)(F)F)CC2` (stereo not drawn) [Example 182, 1-[4-({2-(1-Methylethyl)-7-[3-(trifluoromethyl)pyridin-2-yl]-6,7,8,9-tetrahydro-5H-pyrimido[4,5-d]azepin-4-yl}amino)phenyl]ethanol], which IC50 is on record?
Its IC50 is 790 nM.

How did the IC50 turn out when `CC(C)c1nc2c(c(Nc3ccc4nsnc4c3)n1)CCN(c1ncccc1C(F)(F)F)CC2` [Example 148, Benzo[1,2,5]thiadiazol-5-yl-[2-isopropyl-7-(3-trifluoromethyl-pyridin-yl)-6,7,8,9-tetrahydro-5H-pyrimido[4,5-d]azepin-4-yl]-amine] was run?
Its IC50 is 2170 nM.

Which IC50 does the source give for `FC(F)(F)c1ccc(Nc2nc(N3CCSCC3)nc3c2CCN(c2ncccc2C(F)(F)F)CC3)cc1` [Example 100, [2-Thiomorpholin-4-yl-7-(3-trifluoromethyl-pyridin-2-yl)-6,7,8,9-tetrahydro-5H-pyrimido[4,5-d]azepin-4-yl]-(4-trifluoromethyl-phenyl)-amine] here?
The IC50 was 31 nM.

How did the IC50 turn out when `COCCN(C)c1nc2c(c(Nc3ccc(C(F)(F)F)c(Cl)c3)n1)CCN(c1ncccc1C(F)(F)F)CC2` [Example 229, N^4-[3-Chloro-4-(trifluoromethyl)phenyl]-N^2-methyl-N^2-[2-(methyloxy)ethyl]-7-[3-(trifluoromethyl)pyridin-2-yl]-6,7,8,9-tetrahydro-5H-pyrimido[4,5-d]azepine-2,4-diamine trifluoroacetic acid salt] was run?
Its IC50 is 60 nM.

With `CN1CCC(C)(C)c2ccc(Nc3nc(Sc4ccccc4)nc4c3CCN(c3ncccc3C(F)(F)F)CC4)cc21` [Example 352, 2-(Phenylsulfanyl)-7-[3-(trifluoromethyl)pyridin-2-yl]-N-(1,4,4-trimethyl-1,2,3,4-tetrahydroquinolin-7-yl)-6,7,8,9-tetrahydro-5H-pyrimido[4,5-d]azepin-4-amine] as the compound, how does the IC50 read?
The IC50 was over 6670 nM.

For `FC(F)(F)c1ccc(Nc2nc(-c3ccccn3)nc3c2CCN(c2ncccc2C(F)(F)F)CC3)cc1Cl` [Example 173, N-[3-Chloro-4-(trifluoromethyl)phenyl]-2-pyridin-2-yl-7-[3-(trifluoromethyl)pyridin-2-yl]-6,7,8,9-tetrahydro-5H-pyrimido[4,5-d]azepin-4-amine trifluoroacetic acid salt], which IC50 is on record?
The IC50 was 210 nM.

`CC(C)c1nc2c(c(Nc3cnc(C(F)(F)F)cn3)n1)CCN(c1ncccc1C(F)(F)F)CC2` [Example 191, [2-Isopropyl-7-(3-trifluoromethyl-pyridin-2-yl)-6,7,8,9-tetrahydro-5H-pyrimido[4,5-d]azepin-4-yl]-(5-trifluoromethyl-pyrazin-2-yl)-amine] was tested. Which IC50 did it give?
Its IC50 is 260 nM.

With `CC(C)c1nc2c(c(Nc3ccc(C(F)(F)F)nc3)n1)CCN(c1ncccc1C(F)(F)F)CC2` [Example 23, [2-Isopropyl-7-(3-trifluoromethyl-pyridin-2-yl)-6,7,8,9-tetrahydro-5H-pyrimido[4,5-d]azepin-4-yl]-(6-trifluoromethyl-pyridin-3-yl)-amine] as the compound, how does the IC50 read?
The IC50 was 310 nM.

`OC[C@H]1CCCN1c1nc2c(c(Nc3ccc(C(F)(F)F)cc3)n1)CCN(c1ncccc1C(F)(F)F)CC2` [Example 261, [(2R)-1-(4-{[4-(Trifluoromethyl)phenyl]amino}-7-[3-(trifluoromethyl)pyridin-2-yl]-6,7,8,9-tetrahydro-5H-pyrimido[4,5-d]azepin-2-yl)pyrrolidin-2-yl]methanol hydrochloride salt] was tested. Which IC50 did it give?
Its IC50 is 340 nM.

Which IC50 does the source give for `FC(F)(F)c1ccc(Nc2nc(N3CCCCC3)nc3c2CCN(c2ncccc2C(F)(F)F)CC3)cc1` [Example 39, [2-Piperidin-1-yl-7-(3-trifluoromethyl-pyridin-2-yl)-6,7,8,9-tetrahydro-5H-pyrimido[4,5-d]azepin-4-yl]-(4-trifluoromethyl-phenyl)-amine] here?
The IC50 was 18 nM.

For `OC[C@@H]1CCCN1c1nc2c(c(Nc3ccc(C(F)(F)F)cn3)n1)CCN(c1ncccc1C(F)(F)F)CC2` [Example 262, [(2S)-1-(7-[3-(Trifluoromethyl)pyridin-2-yl]-4-{[5-(trifluoromethyl)pyridin-2-yl]amino}-6,7,8,9-tetrahydro-5H-pyrimido[4,5-d]azepin-2-yl)pyrrolidin-2-yl]methanol hydrochloride salt], which IC50 is on record?
The IC50 was 1640 nM.

For `Cc1cc(C(F)(F)F)ccc1Nc1nc(Sc2ccccc2)nc2c1CCN(c1ncccc1C(F)(F)F)CC2` [Example 351, N-[2-Methyl-4-(trifluoromethyl)phenyl]-2-(phenylsulfanyl)-7-[3-(trifluoromethyl)pyridin-2-yl]-6,7,8,9-tetrahydro-5H-pyrimido[4,5-d]azepin-4-amine], which IC50 is on record?
The IC50 was 750 nM.

Same assay, conditions: read-out: Rat IC50; hydrochloride salt

Which IC50 does the source give for `FC(F)(F)c1ccc(Nc2nc(N3CCOCC3)nc3c2CCN(c2ncccc2C(F)(F)F)CC3)cc1` [Example 40A, [2-Morpholin-4-yl-7-(3-trifluoromethyl-pyridin-2-yl)-6,7,8,9-tetrahydro-5H-pyrimido[4,5-d]azepin-4-yl]-(4-trifluoromethyl-phenyl)-amine hydrochloride salt] here?
Its IC50 is […].
